Results as given in patent publication US20240158446A1, “CYCLIC COMPOUND HAVING SELECTIVE INHIBITORY ACTION ON KRAS OVER HRAS AND NRAS” (CHUGAI SEIYAKU KABUSHIKI KAISHA, priority 2021, published 2024).
Read-outs that look alike come from different tables or passages of the source. *1 amine or outer side, *2 acyl side, *3 side chain or, on linkers, in order; H or OH if unused. Where a SMILES comes first, the peptide text is derived from it. Bridges are numbered along the chain shown (N, C = ends). [ ]: non-standard residue; d: D form. The star is where a group is joined. hPhe(3-Cl-4-CF3) = N[C@@H](CCc1ccc(C(F)(F)F)c(Cl)c1)C(=O)O; X38 = C#CCN([C@@H](Cc1ccc(C(F)(F)F)cc1)C(=O)[*:2])[*:1]; NPrPhe(4-CF3) = CCCN[C@@H](Cc1ccc(C(F)(F)F)cc1)C(=O)O; NEtPhe(4-CF3) = CCN[C@@H](Cc1ccc(C(F)(F)F)cc1)C(=O)O; NMeGly(cPent) = CN[C@H](C(=O)O)C1CCCC1; NMeD = CN[C@@H](CC(=O)O)C(=O)O; NMeL = CN[C@@H](CC(C)C)C(=O)O; X50 = O=C(CN(CCF)[*:1])[*:2]; Ac6c = NC1(C(=O)O)CCCCC1; Morpholide = C1CN(*)CCO1; NMeA = CN[C@@H](C)C(=O)O; Ac5c = NC1(C(=O)O)CCCC1; Aze = O=C(O)[C@@H]1CCN1; Ac3c = NC1(C(=O)O)CC1; Sar = CNCC(=O)O

Experiments:
[1] = target: GDP-bound KRAS wild-type protein (Homo sapiens, UniProt P01116); test: Binding to KRAS by surface plasmon resonance (SPR), Single Cycle Kinetics; conditions: GDP-bound KRAS wild-type protein, read-out: KRAS KD
Sequence of GDP-bound KRAS wild-type protein (P01116 whole entry): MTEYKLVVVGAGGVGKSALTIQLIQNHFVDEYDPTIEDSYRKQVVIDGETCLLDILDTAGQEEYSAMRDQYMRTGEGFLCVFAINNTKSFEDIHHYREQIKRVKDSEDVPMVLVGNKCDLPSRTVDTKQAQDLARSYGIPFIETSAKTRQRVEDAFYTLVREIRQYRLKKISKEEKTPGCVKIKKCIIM

[2] = target: GDP-bound HRAS wild-type protein (Homo sapiens, UniProt P01112); test: Binding to HRAS by surface plasmon resonance (SPR), Single Cycle Kinetics; conditions: for HRAS/KRAS (ratio of KD value with respect to GDP-bound HRAS wild-type protein to KD value with respect to KRAS): SPR KD ratio HRAS/KRAS, class symbols
Sequence of GDP-bound HRAS wild-type protein (P01112 whole entry): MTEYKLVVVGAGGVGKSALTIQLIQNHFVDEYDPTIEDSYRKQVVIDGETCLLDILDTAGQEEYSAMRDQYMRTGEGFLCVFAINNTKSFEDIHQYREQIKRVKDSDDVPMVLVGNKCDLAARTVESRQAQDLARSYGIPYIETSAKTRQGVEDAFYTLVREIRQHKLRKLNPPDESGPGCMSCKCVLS

[3] = target: GDP-bound NRAS wild-type protein (Homo sapiens, UniProt P01111); test: Binding to NRAS by surface plasmon resonance (SPR), Single Cycle Kinetics; conditions: for NRAS/KRAS (ratio of KD value with respect to GDP-bound NRAS wild-type protein to KD value with respect to KRAS): SPR KD ratio NRAS/KRAS, class symbols
Sequence of GDP-bound NRAS wild-type protein (P01111 whole entry): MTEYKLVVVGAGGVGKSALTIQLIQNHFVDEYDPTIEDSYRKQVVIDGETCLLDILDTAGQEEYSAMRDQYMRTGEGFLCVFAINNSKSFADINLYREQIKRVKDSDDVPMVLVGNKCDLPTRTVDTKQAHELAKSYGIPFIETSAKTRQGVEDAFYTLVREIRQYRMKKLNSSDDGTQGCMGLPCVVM

[4] = SPR Single Cycle Kinetics, 1:1 binding model
[5] = SPR, GDP-bound HRAS wild-type protein vs GDP-bound KRAS wild-type protein
[6] = SPR, GDP-bound NRAS wild-type protein vs GDP-bound KRAS wild-type protein

SMILES	Kd [1, 4]	HRAS/KRAS (ratio of KD value for HRAS to KD value for KRAS) [2, 5]	NRAS/KRAS (ratio of KD value for NRAS to KD value for KRAS) [3, 6]	Kd ([1]; SPR, Single Cycle Kinetics)	also measured
CCC[C@H]1C(=O)N[C@@H]([C@@H](C)CC)C(=O)N(C)CC(=O)N(C)[C@H]2C/C=C\CCN(C2=O)[C@@H](Cc2ccc(C(F)(F)F)cc2)C(=O)N(C)CC(=O)N[C@@H](CCc2ccc(C(F)(F)F)c(OC)c2)C(=O)N2C[C@H](OCC)C[C@H]2C(=O)NC2(CC(C)(C)C2)C(=O)N(C)[C@@H](CC2CC2)C(=O)N(C)[C@H](C(=O)N(C)C)CC(=O)N1C [PP2809]	0.9 nM	–	–	–	HRAS/KRAS (ratio of KD value with respect to GDP-bound HRAS wild-type protein to KD value with respect to KRAS) [2]: A (a compound having 10 or more and less than 20 is denoted as A); NRAS/KRAS (ratio of KD value with respect to GDP-bound NRAS wild-type protein to KD value with respect to KRAS) [3]: A (a compound having 10 or more and less than 20 is denoted as A)
CC[C@H](C)[C@@H]1NC(=O)[C@H](CC(C)C)N(C)C(=O)C[C@@H](C(=O)N2CCOCC2)N(C)C(=O)[C@H](C2CCCC2)N(C)C(=O)C2(CC2)NC(=O)[C@@H]2CCCN2C(=O)[C@H](CCc2ccc(C(F)(F)F)c(Cl)c2)NC(=O)CN(C)C(=O)[C@H](Cc2ccc(C(F)(F)F)cc2)N(CC)C(=O)[C@@H]2CCN2C(=O)[C@H](C)N(C)C1=O [PP0220] ([NMeL]I[NMeA][Aze][NEtPhe(4-CF3)][Sar][hPhe(3-Cl-4-CF3)]P[Ac3c][NMeGly(cPent)][NMeD]-Morpholide; lactam N-11)	0.35 nM	C (A compound having a KD ratio of 0.1 or more and less than 3 is denoted as C)	C (A compound having a KD ratio of 0.1 or more and less than 3 is denoted as C)	–	–
CCO[C@@H]1C[C@H]2C(=O)NC3(CC(C)(C)C3)C(=O)N(C)[C@@H](C3CCCC3)C(=O)N(C)[C@H](C(=O)N(C)C)CC(=O)N(C)[C@H]3CCCC/C=C/c4ccc(cc4)C[C@@H](C(=O)N(C)CC(=O)N[C@@H](CCc4ccc(C(F)(F)F)c(OC)c4)C(=O)N2C1)N1CC/C=C\C[C@@H](C1=O)N(C)C(=O)CN(C)C(=O)[C@H]([C@@H](C)CC)NC3=O [PP1832]	–	–	–	0.04 nM	HRAS/KRAS (KD ratio) ([2]; ratio of KD for GDP-bound HRAS wild-type protein to KD for KRAS, SPR): B (a compound having 3 or more and less than 10 is denoted as B); NRAS/KRAS (KD ratio) ([3]; ratio of KD for GDP-bound NRAS wild-type protein to KD for KRAS, SPR): B (a compound having 3 or more and less than 10 is denoted as B)
CCCN1C(=O)CN(C)C(=O)CN(CCF)C(=O)[C@H]([C@@H](C)CC)NC(=O)[C@H](CC(C)C)N(C)C(=O)C[C@@H](C(=O)N2CCOCC2)N(C)C(=O)[C@H](C2CCCC2)N(C)C(=O)C2(CCCC2)NC(=O)[C@@H]2CCCN2C(=O)[C@H](CCc2ccc(C(F)(F)F)c(Cl)c2)NC(=O)CN(C)C(=O)[C@@H]1Cc1ccc(C(F)(F)F)cc1 [PP0751] ([NMeL]I[X50][Sar][NPrPhe(4-CF3)][Sar][hPhe(3-Cl-4-CF3)]P[Ac5c][NMeGly(cPent)][NMeD]-Morpholide; lactam N-11)	0.52 nM	–	–	–	HRAS/KRAS (ratio of KD value with respect to HRAS to KD value with respect to KRAS) [2, 5]: C (A compound having a KD ratio of 0.1 or more and less than 3 is denoted as C); NRAS/KRAS (ratio of KD value with respect to NRAS to KD value with respect to KRAS) [3, 6]: B (a compound having 3 or more and less than 10 is denoted as B)
C#CCN1C(=O)[C@@H]2CCN2C(=O)[C@H](C)N(C)C(=O)[C@H]([C@@H](C)CC)NC(=O)[C@H](CC(C)C)N(C)C(=O)C[C@@H](C(=O)N2CCOCC2)N(C)C(=O)[C@H](C2CCCC2)N(C)C(=O)C2(CCCC2)NC(=O)[C@@H]2CCCN2C(=O)[C@H](CCc2ccc(C(F)(F)F)c(Cl)c2)NC(=O)CN(C)C(=O)[C@@H]1Cc1ccc(C(F)(F)F)cc1 [PP0116] ([NMeL]I[NMeA][Aze][X38][Sar][hPhe(3-Cl-4-CF3)]P[Ac5c][NMeGly(cPent)][NMeD]-Morpholide; lactam N-11)	0.27 nM	C (A compound having a KD ratio of 0.1 or more and less than 3 is denoted as C)	C (A compound having a KD ratio of 0.1 or more and less than 3 is denoted as C)	–	–
C#CCN1CC(=O)N(C)[C@H]2C/C=C\CCN(C2=O)[C@@H](Cc2ccc(C)cc2)C(=O)N(C)CC(=O)N[C@@H](CCc2cc(F)c(C(F)(F)F)c(F)c2)C(=O)N2C[C@H](OCC)C[C@H]2C(=O)NC2(CC(C)(C)C2)C(=O)N(C)[C@@H](C2CCCC2)C(=O)N(C)[C@H](C(=O)N(C)C)CC(=O)N(C)[C@@H](CC(C)C)C(=O)N[C@@H]([C@@H](C)CC)C1=O [PP2052]	–	A (a compound having 10 or more and less than 20 is denoted as A)	A (a compound having 10 or more and less than 20 is denoted as A)	0.16 nM	–
CC[C@H](C)[C@@H]1NC(=O)[C@H](CC2CCCC2)N(C)C(=O)C[C@@H](C(=O)N(C)C)N(C)C(=O)[C@@H](C2CCCC2)N(C)C(=O)C2(CCC2)NC(=O)[C@@H]2[C@@H](OCC(F)F)CCN2C(=O)[C@@H](CCc2cc(F)c(C(F)(F)F)c(F)c2)NC(=O)CN(C)C(=O)[C@@H](Cc2ccc(C)cc2)N2CC/C=C\C[C@H](C2=O)N(C)C(=O)CN(C)C1=O [PP1536]	–	–	–	–	Kd ([1]; SPR, Single Cycle Kinetics, 1:1 binding model): 0.2 nM; HRAS/KRAS (ratio of KD value for HRAS to KD value for KRAS) ([2]; SPR, GDP-bound HRAS wild-type protein vs GDP-bound KRAS wild-type protein, KD ratio class): B (a compound having 3 or more and less than 10 is denoted as B); NRAS/KRAS (ratio of KD value for NRAS to KD value for KRAS) ([3]; SPR, GDP-bound NRAS wild-type protein vs GDP-bound KRAS wild-type protein, KD ratio class): A (a compound having 10 or more and less than 20 is denoted as A)
CC[C@H](C)[C@@H]1NC(=O)[C@H](CC(C)C)N(C)C(=O)C[C@@H](C(=O)N2CCOCC2)N(C)C(=O)[C@H](C2CCCC2)N(C)C(=O)C2(CCCCC2)NC(=O)[C@@H]2CCCN2C(=O)[C@H](CCc2ccc(C(F)(F)F)c(Cl)c2)NC(=O)CN(C)C(=O)[C@H](Cc2ccc(C(F)(F)F)cc2)N(CC)C(=O)CN(C)C(=O)CN(C)C1=O [PP0236] ([NMeL]I[Sar][Sar][NEtPhe(4-CF3)][Sar][hPhe(3-Cl-4-CF3)]P[Ac6c][NMeGly(cPent)][NMeD]-Morpholide; lactam N-11)	0.54 nM	C (A compound having a KD ratio of 0.1 or more and less than 3 is denoted as C)	B (a compound having 3 or more and less than 10 is denoted as B)	–	–
CCC[C@H]1C(=O)N[C@@H]([C@@H](C)CC)C(=O)N(C)CC(=O)N(C)[C@H]2C/C=C\CCN(C2=O)[C@@H](Cc2ccc(C(F)(F)F)cc2)C(=O)N(C)CC(=O)N[C@@H](CCc2ccc(CC)c(Cl)c2)C(=O)N2C[C@H](OCC)C[C@H]2C(=O)NC2(CC(C)(C)C2)C(=O)N(C)[C@@H](C(CC)CC)C(=O)N(C)[C@H](C(=O)N(C)C)CC(=O)N1C [PP2777]	2.4 nM	–	–	–	HRAS/KRAS (ratio of KD value with respect to GDP-bound HRAS wild-type protein to KD value with respect to KRAS) [2]: A (a compound having 10 or more and less than 20 is denoted as A); NRAS/KRAS (ratio of KD value with respect to GDP-bound NRAS wild-type protein to KD value with respect to KRAS) [3]: AA (a compound having 20 or more is denoted as AA)
CCO[C@@H]1C[C@H]2C(=O)NC3(CC(C)(C)C3)C(=O)N(C)[C@@H](C(CC)CC)C(=O)N(C)[C@H](C(=O)N3CCCC3)CC(=O)N(C)[C@@H](COC)C(=O)N[C@@H]([C@@H](C)CC)C(=O)N(C)CC(=O)N(C)[C@H]3C/C=C\CCN(C3=O)[C@@H](Cc3ccc(C(F)(F)F)cc3)C(=O)N(C)CC(=O)N[C@@H](CCc3cc(F)c(C(F)(F)F)c(F)c3)C(=O)N2C1 [PP2123]	–	A (a compound having 10 or more and less than 20 is denoted as A)	A (a compound having 10 or more and less than 20 is denoted as A)	0.25 nM	–
